US20220267352A1, “RAPAMYCIN ANALOGS AND USES THEREOF” (Anakuria Therapeutics, Inc., priority 2021, published 2022)

What was measured:
Assay type in all cases: cell-based
[1] = tested on: p-p70 S6 Kinase (Thr389) in MCF-7 cells; assay: AlphaLISA Ultra pS6K1 assay; conditions: Homo sapiens, 1.5 h; MCF7 cells, 90 min
Procedure, shortened: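 Phospho-S6K1 (Thr389) quantified by AlphaLISA Ultra read-out (2 h acceptor, then 2 h donor beads) in lysates of MCF-7 cells. Cells were plated 20–24 h before, refed 2 h, exposed to compounds for 90 min at 0.5% final DMSO, and lysates stored at −80 °C.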

mTORC1 over mTORC2 = mTORC1 over mTORC2 selectivity by comparing pS6K1 and pAKT IC50; conditions: by comparing pS6K1 and pAKT IC50, 90 min
Procedure, shortened: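 MCF-7 cells were treated with compounds (0.5% final DMSO) for 90 minutes in one protocol and 2 hours in the other, then lysed. Phospho-signal in lysates was read by bead-based donor/acceptor proximity assay. pS6K1 and pAKT IC50 values were compared to judge mTORC1 over mTORC2 selectivity, at 90 min and at 24 hrs.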

[2] = tested on: p-Akt 1/2/3 (Ser473) in MCF-7 cells; assay: AlphaLISA Ultra pAKT assay; conditions: Homo sapiens, 1.5 h; MCF7 cells, 90 min
Procedure, shortened: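 MCF-7 cells (16,000˜20,000 per well in 36 μL medium) were seeded in Corning 3701 plates for 20˜24 hour, refreshed with new medium for 90 minutes, then given 12 μL of 4× compound (0.5% final DMSO). Cells were lysed with 2× lysis buffer, and lysate was analyzed by AlphaLISA Ultra pAKT using acceptor and donor beads, read on an EnSpire reader.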

SMILES	IC50 [1] [µM]	mTORC1 selective @ 90 min (mTORC1 over mTORC2)	IC50 [2] [µM]
COCCOCCO[C@@H]1C[C@@H]2CC[C@@H](C)[C@@](O)(O2)C(=O)C(=O)N2CCCC[C@H]2C(=O)O[C@H]([C@H](C)C[C@@H]2CC[C@@H](O)[C@H](OC)C2)CC(=O)[C@H](C)/C=C(\C)[C@@H](OC)[C@@H](OC)C(=O)[C@H](C)C[C@H](C)/C=C/C=C/C=C/1C [I-48, (23E,25E,27E,28E,34R,35S,36R,37R,39S,41S,43R,44S,45R,46R,55R)-55-hydroxy-44-[(1R)-2-[(1S,3R,4R)-4-hydroxy-3-methoxy-cyclohexyl]-1-methyl-ethyl]-45,46-dimethoxy-43-[2-(2-methoxyethoxy)ethoxy]-34,35,36,37,47,48-hexamethyl-64,65-dioxa-56-azatricyclohexatriaconta-23,25,27(47),28(48)-tetraene-49,50,51,52,53-pentone]	0.001 to 0.01	Yes	≥ 1
CO[C@@H]1/C(C)=C/[C@@H](C)C(=O)C[C@@H]([C@H](C)C[C@@H]2CC[C@@H](OC)[C@H](OC)C2)OC(=O)[C@@H]2CCCCN2C(=O)C(=O)[C@]2(O)O[C@@H](CC[C@H]2C)CC(OCCOC2COC2)/C(C)=C/C=C/C=C/[C@@H](C)C[C@@H](C)C(=O)[C@@H]1OC (stereo partly drawn) [I-50, (25E,27E,29E,30E,34R,35S,36R,37R,39S,41S,44S,46R,47R,56R)-44-[(1R)-2-[(1S,3R,4R)-3,4-dimethoxycyclohexyl]-1-methyl-ethyl]-56-hydroxy-46,47-dimethoxy-34,35,36,37,48,49-hexamethyl-43-[2-(oxetan-3-yloxy)ethoxy]-65,66-dioxa-57-azatricyclohexatriaconta-25,27,29(48),30(49)-tetraene-50,51,52,53,54-pentone]	0.001 to 0.01	Yes	≥ 1
CO[C@@H]1/C(C)=C/[C@@H](C)C(=O)C[C@@H]([C@H](C)C[C@@H]2CC[C@@H](OP(C)(C)=O)[C@H](OC)C2)OC(=O)[C@@H]2CCCCN2C(=O)C(=O)[C@]2(O)O[C@@H](CC[C@H]2C)CC(OCCOC2COC2)/C(C)=C/C=C/C=C/[C@@H](C)C[C@@H](C)C(=O)[C@@H]1OC (stereo partly drawn) [I-75, (1R,2R,4S)-4-((2R)-2-((3S,6R,7E,9R,10R,12R,14S,15E,17E,19E,23S,26R,27R,34aS)-27-hydroxy-9,10-dimethoxy-6,8,12,14,20,26-hexamethyl-21-(2-(oxetan-3-yloxy)ethoxy)-1,5,11,28,29-pentaoxo-1,4,5,6,9,10,11,12,13,14,21,22,23,24,25,26,27,28,29,31,32,33,34,34a-tetracosahydro-3H-23,27-epoxypyrido[2,1-c][1]oxa[4]azacyclohentriacontin-3-yl)propyl)-2-methoxycyclohexyl dimethylphosphinate]	≥ 1	Yes	≥ 1
COCCO[C@@H]1CC[C@@H](C[C@@H](C)[C@@H]2CC(=O)[C@H](C)/C=C(\C)[C@@H](O)[C@@H](OC)C(=O)[C@H](C)C[C@H](C)/C=C/C=C/C=C(\C)C(OC[C@@H]3COCCO3)C[C@@H]3CC[C@@H](C)[C@@](O)(O3)C(=O)C(=O)N3CCCC[C@H]3C(=O)O2)C[C@H]1OC (stereo partly drawn) [I-76, (1R,9S,12S,15R,16E,18R,19R,21R,23S,24E,26E,28E,32S,35R)-30-[[(2S)-1,4-dioxan-2-yl]methoxy]-1,18-dihydroxy-19-methoxy-12-[(1R)-2-[(1S,3R,4R)-3-methoxy-4-(2-methoxyethoxy)cyclohexyl]-1-methyl-ethyl]-15,17,21,23,29,35-hexamethyl-11,36-dioxa-4-azatricyclo[30.3.1.0^4,9]hexatriaconta-16,24,26,28-tetraene-2,3,10,14,20-pentone]	< 0.001	Yes	≥ 1
CO[C@@H]1C[C@H](C[C@@H](C)[C@@H]2CC(=O)[C@H](C)/C=C(\C)[C@@H](O)[C@@H](OC)C(=O)[C@H](C)C[C@H](C)/C=C/C=C/C=C(\C)[C@H](OCCOC3COC3)C[C@@H]3CC[C@@H](C)[C@@](O)(O3)C(=O)C(=O)N3CCCC[C@H]3C(=O)O2)CC[C@H]1OP(C)(C)=O [I-77, (1R,9S,12S,15R,16E,18R,19R,21R,23S,24E,26E,28E,30R,32S,35R)-12-[(1R)-2-[(1S,3R,4R)-4-dimethylphosphoryloxy-3-methoxy-cyclohexyl]-1-methyl-ethyl]-1,18-dihydroxy-19-methoxy-15,17,21,23,29,35-hexamethyl-30-[2-(oxetan-3-yloxy)ethoxy]-11,36-dioxa-4-azatricyclo[30.3.1.0^4,9]hexatriaconta-16,24,26,28-tetraene-2,3,10,14,20-pentone]	0.01 to 0.1	Yes	≥ 1
CO[C@@H]1C[C@H](C[C@@H](C)[C@@H]2CC(=O)[C@H](C)/C=C(\C)[C@@H](O)[C@@H](OC)C(=O)[C@H](C)C[C@H](C)/C=C/C=C/C=C(\C)[C@@H](OCCOC3COC3)C[C@@H]3CC[C@@H](C)[C@@](O)(O3)C(=O)C(=O)N3CCCC[C@H]3C(=O)O2)CC[C@H]1OP(C)(C)=O [I-78, (1R,9S,12S,15R,16E,18R,19R,21R,23S,24E,26E,28E,30S,32S,35R)-12-[(1R)-2-[(1S,3R,4R)-4-dimethylphosphoryloxy-3-methoxy-cyclohexyl]-1-methyl-ethyl]-1,18-dihydroxy-19-methoxy-15,17,21,23,29,35-hexamethyl-30-[2-(oxetan-3-yloxy)ethoxy]-11,36-dioxa-4-azatricyclo[30.3.1.0^4,9]hexatriaconta-16,24,26,28-tetraene-2,3,10,14,20-pentone]	< 0.001	Yes	≥ 1
COCCO[C@@H]1CC[C@@H](C[C@@H](C)[C@@H]2CC(=O)[C@H](C)/C=C(\C)[C@@H](O)[C@@H](OC)C(=O)[C@H](C)C[C@H](C)/C=C/C=C/C=C(\C)C(OC[C@H]3COCCO3)C[C@@H]3CC[C@@H](C)[C@@](O)(O3)C(=O)C(=O)N3CCCC[C@H]3C(=O)O2)C[C@H]1OC (stereo partly drawn) [I-79, (1R,9S,12S,15R,16E,18R,19R,21R,23S,24E,26E,28E,32S,35R)-30-[[(2R)-1,4-dioxan-2-yl]methoxy]-1,18-dihydroxy-19-methoxy-12-[(1R)-2-[(1S,3R,4R)-3-methoxy-4-(2-methoxyethoxy)cyclohexyl]-1-methyl-ethyl]-15,17,21,23,29,35-hexamethyl-11,36-dioxa-4-azatricyclo[30.3.1.0^4,9]hexatriaconta-16,24,26,28-tetraene-2,3,10,14,20-pentone]	0.001 to 0.01	Yes	≥ 1
CO[C@@H]1/C(C)=C/[C@@H](C)C(=O)C[C@@H]([C@H](C)C[C@@H]2CC[C@@H](OCCO)[C@H](OC)C2)OC(=O)[C@@H]2CCCCN2C(=O)C(=O)[C@]2(O)O[C@@H](CC[C@H]2C)CC(OCCOCCOC2COC2)/C(C)=C/C=C/C=C/[C@@H](C)C[C@@H](C)C(=O)[C@@H]1OC (stereo partly drawn) [I-80, (1R,9S,12S,15R,16E,18R,19R,21R,23S,24E,26E,28E,32S,35R)-1-hydroxy-12-[(1R)-2-[(1S,3R,4R)-4-(2-hydroxyethoxy)-3-methoxy-cyclohexyl]-1-methyl-ethyl]-18,19-dimethoxy-15,17,21,23,29,35-hexamethyl-30-[2-[2-(oxetan-3-yloxy)ethoxy]ethoxy]-11,36-dioxa-4-azatricyclo[30.3.1.0^4,9]hexatriaconta-16,24,26,28-tetraene-2,3,10,14,20-pentone]	0.01 to 0.1	Yes	≥ 1
COCCO[C@@H]1CC[C@@H](C[C@@H](C)[C@@H]2CC(=O)[C@H](C)/C=C(\C)[C@@H](OC)[C@@H](OC)C(=O)[C@H](C)C[C@H](C)/C=C/C=C/C=C(\C)C(OCCOCCOC3COC3)C[C@@H]3CC[C@@H](C)[C@@](O)(O3)C(=O)C(=O)N3CCCC[C@H]3C(=O)O2)C[C@H]1OC (stereo partly drawn) [I-81, (1R,9S,12S,15R,16E,18R,19R,21R,23S,24E,26E,28E,32S,35R)-1-hydroxy-18,19-dimethoxy-12-[(1R)-2-[(1S,3R,4R)-3-methoxy-4-(2-methoxyethoxy)cyclohexyl]-1-methyl-ethyl]-15,17,21,23,29,35-hexamethyl-30-[2-[2-(oxetan-3-yloxy)ethoxy]ethoxy]-11,36-dioxa-4-azatricyclo[30.3.1.0^4,9]hexatriaconta-16,24,26,28-tetraene-2,3,10,14,20-pentone]	0.01 to 0.1	Yes	≥ 1
COCCO[C@@H]1CC[C@@H](C[C@@H](C)[C@@H]2CC(=O)[C@H](C)/C=C(\C)[C@@H](OC)[C@@H](OC)C(=O)[C@H](C)C[C@H](C)/C=C/C=C/C=C(\C)[C@H](OCCOC3COC3)C[C@@H]3CC[C@@H](C)[C@@](O)(O3)C(=O)C(=O)N3CCCC[C@H]3C(=O)O2)C[C@H]1OC [I-82, (1R,9S,12S,15R,16E,18R,19R,21R,23S,24E,26E,28E,30R,32S,35R)-1-hydroxy-18,19-dimethoxy-12-[(1R)-2-[(1S,3R,4R)-3-methoxy-4-(2-methoxyethoxy)cyclohexyl]-1-methyl-ethyl]-15,17,21,23,29,35-hexamethyl-30-[2-(oxetan-3-yloxy)ethoxy]-11,36-dioxa-4-azatricyclo[30.3.1.0^4,9]hexatriaconta-16,24,26,28-tetraene-2,3,10,14,20-pentone]	0.01 to 0.1	Yes	≥ 1
